Experiment: Stability of Budesonide on storage, 21-aldehyde and Budesonide content by HPLC
Assay type: physicochemical
Details: for Budenoside HPLC Area % / 21 Aldehyde HPLC Area %: double plastic containers
Protocol: The amount of air-sensitive steroid and/or its 21 aldehyde impurity were determined using HPLC. Common HPLC methods for these steroids and their 21-aldehyde impurities may be found in various monographs see for example for Budesonide and its 21-aldehyde impurity a HPLC method is reported in USP31-NF26, page 1565 (detection limit 0.02%), for Fluocinolone acetonide a HPLC method in European Pharmacopoeia (EP) 6.0, page 1915, and for Methylprednisolone a HPLC method in European Pharmacopoeia (EP) 6.0, page 2393.
Budenoside from three production lots prepared in stainless steel reactors was compared to a lot of Budenoside produced in such a reactor and purified with cysteine according to example 5. All samples were stored in double plastic containers. The samples that were not treated with cysteine were kept at a temperature of 25±2° C. and relative humidity of 60%. The sample treated with cysteine was stored at a temperature that varied from about 0° C. to about 40° C. with no humidity control. As is shown in the table below the amount of the 21-aldehyde impurity in the Budenoside purified according to example 5 is less than 0.07% even after 6 years of storage. The aldehyde content of all samples was measured by HPLC.

[1] = lot purified with cysteine, stored at about 0° C. to about 40° C., no humidity control, 6 years
[2] = production lot 1 of 3 (c1-c2), not treated with cysteine, 25±2° C., 60% relative humidity, 2 years
[3] = production lot 1 of 3 (c1-c2), not treated with cysteine, 25±2° C., 60% relative humidity, 5 years
[4] = production lot 2 of 3 (c3-c4), not treated with cysteine, 25±2° C., 60% relative humidity, 2 years
[5] = production lot 2 of 3 (c3-c4), not treated with cysteine, 25±2° C., 60% relative humidity, 5 years
[6] = production lot 3 of 3 (c5-c6), not treated with cysteine, 25±2° C., 60% relative humidity, 2 years
[7] = production lot 3 of 3 (c5-c6), not treated with cysteine, 25±2° C., 60% relative humidity, 5 years

SMILES: CCCC1O[C@@H]2C[C@H]3[C@@H]4CCC5=CC(=O)C=C[C@]5(C)[C@H]4[C@@H](O)C[C@]3(C)[C@]2(C(=O)CO)O1 (stereo partly shown) [Budesonide]
- amount of the 21-aldehyde impurity (after 6 years of storage at about 0° C. to about 40° C., no humidity control): less than 0.07%
- Budenoside HPLC Area % (lot purified with cysteine, stored at about 0° C. to about 40° C., no humidity control, 0 years): 99.76 HPLC Area %
- 21 Aldehyde HPLC Area % [1]: 0.02 HPLC Area %
- Budenoside HPLC Area % [1]: 99.61 HPLC Area %

SMILES: CCCC1O[C@@H]2C[C@H]3[C@@H]4CCC5=CC(=O)C=C[C@]5(C)[C@H]4[C@@H](O)C[C@]3(C)[C@]2(C(=O)CO)O1 (stereo partly shown) [Budenoside, Budesonide]
- Budenoside HPLC Area % (production lot 1 of 3 (c1-c2), not treated with cysteine, 25±2° C., 60% relative humidity, 0 years): 99.0 HPLC Area %
- Budenoside HPLC Area % (production lot 1 of 3 (c1-c2), not treated with cysteine, 25±2° C., 60% relative humidity, 1 year): 98.8 HPLC Area %
- 21 Aldehyde HPLC Area % [2]: 0.1 HPLC Area %
- Budenoside HPLC Area % [2]: 98.7 HPLC Area %
- 21 Aldehyde HPLC Area % [3]: 0.2 HPLC Area %
- Budenoside HPLC Area % [3]: 98.4 HPLC Area %
- Budenoside HPLC Area % (production lot 2 of 3 (c3-c4), not treated with cysteine, 25±2° C., 60% relative humidity, 0 years): 99.4 HPLC Area %
- Budenoside HPLC Area % (production lot 2 of 3 (c3-c4), not treated with cysteine, 25±2° C., 60% relative humidity, 1 year): 98.9 HPLC Area %
- 21 Aldehyde HPLC Area % [4]: 0.6 HPLC Area %
- Budenoside HPLC Area % [4]: 98.5 HPLC Area %
- 21 Aldehyde HPLC Area % [5]: 0.9 HPLC Area %
- Budenoside HPLC Area % [5]: 97.8 HPLC Area %
- Budenoside HPLC Area % (production lot 3 of 3 (c5-c6), not treated with cysteine, 25±2° C., 60% relative humidity, 0 years): 99.2 HPLC Area %
- Budenoside HPLC Area % (production lot 3 of 3 (c5-c6), not treated with cysteine, 25±2° C., 60% relative humidity, 1 year): 99.0 HPLC Area %
- 21 Aldehyde HPLC Area % [6]: <0.1 HPLC Area %
- Budenoside HPLC Area % [6]: 99.1 HPLC Area %
- 21 Aldehyde HPLC Area % [7]: <0.2 HPLC Area %
- Budenoside HPLC Area % [7]: 98.2 HPLC Area %
